Assay results taken from article PMC4858918, “Improving the N-terminal diversity of sansanmycin through mutasynthesis” (Microbial Cell Factories, 2016).
In brackets after ≈: the same amount, converted by molar mass.

Columns and labels:
[1] = Stability determination in KH2PO4 buffer; format: physicochemical; settings: chemical stability, 0.05 M KH2PO4 buffer pH 6.0, room temperature (25 °C), HPLC peak areas, three parallel repeats
Procedure: As it is easier to get enough amount of sansanmycin MX-2 and MX-4, the stability test of sansanmycin A, MX-2 and MX-4 was performed in KH2PO4 buffer (pH 6.0) at room temperature.
Fig. 8 Stability of sansanmycin A, MX-2 and MX-4. a HPLC analysis of sansanmycin A at indicated days in KH2PO4 buffer (pH 6.0) at room temperature. b The changes of the level of sansanmycin A, MX-2 and MX-4 over time. All samples were analyzed by HPLC and quantified according to the areas of peaks. blue line, sansanmycin MX-2; red line, sansanmycin MX-4; green line, sansanmycin A
To dissect the stability of sansanmycin A and other sansanmycin analogues, compounds were dissolved in 0.05 M KH2PO4 buffer (pH adjusted to 6.0 with NaOH). All samples were incubated at 25 °C for 9 days. Each sample has three parallel repeats. Residual analogues were analyzed by HPLC and quantified by the peak areas.

[2] = tested on: M. tuberculosis H37Rv; assay: MIC, microplate Alamar blue assay (MABA); format: cell-based; settings: Mycobacterium tuberculosis, standard and susceptible strain
[3] = tested on: E. coli ΔtolC mutant; assay: MIC, microdilution test (CLSI); settings: Mueller-Hinton broth, 10^6 cells/ml, 37 °C, 24 h, visual observation, triplicate
[4] = tested on: P. aeruginosa 11; assay: MIC, microdilution test (CLSI); settings: Pseudomonas aeruginosa, 11, 24 h, read-out: MIC P. aeruginosa 11
[5] = tested on: B. subtilis CMCC (B) 63501; assay: MIC, microdilution test (CLSI); settings: Bacillus subtilis, 24 h, read-out: MIC B. subtilis CMCC (B) 63501

Compound: CSCC[C@H](NC(=O)N[C@@H](Cc1c[nH]c2ccccc12)C(=O)O)C(=O)NC(C(=O)N/C=C1/CC(O)C(n2ccc(=O)[nH]c2=O)O1)C(C)N(C)C(=O)[C@@H](N)Cc1cccc(O)c1 (some centres unmarked) [A, sansanmycin A]
- compound remained after 6 days of incubation [1]: less than 10%

Compound: CC[C@@H](CO)NCCN[C@@H](CC)CO [Ethambutol]
- MIC [2]: 0.5 µg/mL (≈ 2.45 µM)

Compound: NNC(=O)c1ccncc1 [Isoniazid]
- MIC [2]: 0.125 µg/mL (≈ 0.911 µM)

Compound: CO[C@H]1/C=C/O[C@@]2(C)Oc3c(C)c(O)c4c(O)c(c(/C=N/N5CCN(C)CC5)c(O)c4c3C2=O)NC(=O)/C(C)=C\C=C\[C@H](C)[C@H](O)[C@@H](C)[C@@H](O)[C@@H](C)[C@H](OC(C)=O)[C@@H]1C [Rifampicin]
- MIC [2]: < 0.06 µg/mL

Compound: [H]/N=C(/N)N[C@H]1[C@H](O)[C@@H](O)[C@H](O[C@@H]2O[C@@H](C)[C@](O)(C=O)[C@H]2O[C@@H]2O[C@@H](CO)[C@H](O)[C@@H](O)[C@@H]2NC)[C@@H](N/C(N)=N\[H])[C@@H]1O [Streptomycin]
- MIC [2]: 0.25 µg/mL (≈ 0.43 µM)
- MIC E. coli ΔtolC [3]: 16 µg/mL (≈ 27.5 µM)
- MIC [4]: 4 µg/mL (≈ 6.88 µM)
- MIC [5]: 2 µg/mL (≈ 3.44 µM)
